Legend:
[1] = biological target: PI3-kinase p110-delta/p85-alpha (Homo sapiens, UniProt O00329); assay: Inhibition of human recombinant full length N-terminal GST-tagged PI3K p110delta/p85alpha coexpressed in baculovirus infected Sf9 insect cells using diC8PIP2 as substrate incubated for 15 mins followed by substrate addition measured after 2 hr by ADP-Glo luminescence assay
[2] = biological target: Phosphatidylinositol 4,5-bisphosphate 3-kinase catalytic subunit gamma isoform (Homo sapiens, UniProt P48736); assay: biochemical
Description: Inhibition of human recombinant full length N-terminal His-tagged PI3Kgamma expressed in Sf9 insect cells using diC8PIP2 as substrate incubated for 15 mins followed by substrate addition measured after 2 hr by ADP-Glo luminescence assay

[3] = Half life in mouse hepatocytes at 1 uM by LC/MS analysis; format: ADME, cell-based, Hepatocyte

Sequence of PI3-kinase p110-delta/p85-alpha (P27986 whole entry, canonical isoform): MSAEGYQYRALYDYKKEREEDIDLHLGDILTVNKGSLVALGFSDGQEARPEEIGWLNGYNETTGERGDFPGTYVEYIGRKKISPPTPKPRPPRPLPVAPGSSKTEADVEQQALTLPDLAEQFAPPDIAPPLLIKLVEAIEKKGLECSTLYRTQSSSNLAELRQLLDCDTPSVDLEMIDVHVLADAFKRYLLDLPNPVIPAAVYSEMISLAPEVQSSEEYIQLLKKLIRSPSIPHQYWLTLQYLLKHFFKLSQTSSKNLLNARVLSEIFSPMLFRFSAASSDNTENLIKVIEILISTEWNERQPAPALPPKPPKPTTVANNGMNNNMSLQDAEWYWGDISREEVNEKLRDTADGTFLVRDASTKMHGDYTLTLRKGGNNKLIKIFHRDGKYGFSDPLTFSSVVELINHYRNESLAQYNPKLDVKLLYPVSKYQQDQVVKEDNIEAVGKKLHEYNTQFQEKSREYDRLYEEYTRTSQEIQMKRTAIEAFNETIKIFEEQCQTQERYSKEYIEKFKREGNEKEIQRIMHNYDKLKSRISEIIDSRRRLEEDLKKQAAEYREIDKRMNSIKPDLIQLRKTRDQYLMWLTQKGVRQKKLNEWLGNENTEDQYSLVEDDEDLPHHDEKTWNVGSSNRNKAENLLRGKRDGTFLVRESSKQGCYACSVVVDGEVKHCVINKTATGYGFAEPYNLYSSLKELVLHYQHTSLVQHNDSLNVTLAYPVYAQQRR
Sequence of PI3-kinase p110-delta/p85-alpha (O00329 whole entry, canonical isoform): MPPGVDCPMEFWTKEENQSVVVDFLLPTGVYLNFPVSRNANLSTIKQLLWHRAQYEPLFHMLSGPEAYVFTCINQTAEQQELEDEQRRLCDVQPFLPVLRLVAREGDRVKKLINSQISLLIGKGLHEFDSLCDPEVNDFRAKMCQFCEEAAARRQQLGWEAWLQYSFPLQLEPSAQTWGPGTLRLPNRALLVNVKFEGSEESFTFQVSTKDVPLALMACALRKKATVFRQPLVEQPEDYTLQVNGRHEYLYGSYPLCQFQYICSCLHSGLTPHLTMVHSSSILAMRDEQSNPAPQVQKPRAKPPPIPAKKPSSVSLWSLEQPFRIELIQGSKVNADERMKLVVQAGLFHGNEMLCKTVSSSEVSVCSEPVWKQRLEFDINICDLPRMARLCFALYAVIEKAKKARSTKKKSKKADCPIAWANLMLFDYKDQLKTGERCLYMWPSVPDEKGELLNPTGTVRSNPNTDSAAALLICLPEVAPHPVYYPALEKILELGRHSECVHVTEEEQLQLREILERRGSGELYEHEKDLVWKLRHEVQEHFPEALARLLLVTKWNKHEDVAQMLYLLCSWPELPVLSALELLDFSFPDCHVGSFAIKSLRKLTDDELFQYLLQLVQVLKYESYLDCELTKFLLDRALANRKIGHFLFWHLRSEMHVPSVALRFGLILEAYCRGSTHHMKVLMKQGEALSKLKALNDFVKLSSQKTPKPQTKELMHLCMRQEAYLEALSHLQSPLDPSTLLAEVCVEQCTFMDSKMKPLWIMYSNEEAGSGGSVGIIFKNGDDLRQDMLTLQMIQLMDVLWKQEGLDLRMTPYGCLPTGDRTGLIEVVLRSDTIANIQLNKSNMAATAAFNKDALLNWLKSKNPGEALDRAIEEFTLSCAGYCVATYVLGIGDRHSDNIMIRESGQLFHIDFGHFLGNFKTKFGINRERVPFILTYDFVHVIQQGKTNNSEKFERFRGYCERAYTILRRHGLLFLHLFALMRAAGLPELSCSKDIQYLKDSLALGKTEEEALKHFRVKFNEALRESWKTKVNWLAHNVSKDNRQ
Sequence of Phosphatidylinositol 4,5-bisphosphate 3-kinase catalytic subunit gamma isoform (P48736 whole entry, canonical isoform): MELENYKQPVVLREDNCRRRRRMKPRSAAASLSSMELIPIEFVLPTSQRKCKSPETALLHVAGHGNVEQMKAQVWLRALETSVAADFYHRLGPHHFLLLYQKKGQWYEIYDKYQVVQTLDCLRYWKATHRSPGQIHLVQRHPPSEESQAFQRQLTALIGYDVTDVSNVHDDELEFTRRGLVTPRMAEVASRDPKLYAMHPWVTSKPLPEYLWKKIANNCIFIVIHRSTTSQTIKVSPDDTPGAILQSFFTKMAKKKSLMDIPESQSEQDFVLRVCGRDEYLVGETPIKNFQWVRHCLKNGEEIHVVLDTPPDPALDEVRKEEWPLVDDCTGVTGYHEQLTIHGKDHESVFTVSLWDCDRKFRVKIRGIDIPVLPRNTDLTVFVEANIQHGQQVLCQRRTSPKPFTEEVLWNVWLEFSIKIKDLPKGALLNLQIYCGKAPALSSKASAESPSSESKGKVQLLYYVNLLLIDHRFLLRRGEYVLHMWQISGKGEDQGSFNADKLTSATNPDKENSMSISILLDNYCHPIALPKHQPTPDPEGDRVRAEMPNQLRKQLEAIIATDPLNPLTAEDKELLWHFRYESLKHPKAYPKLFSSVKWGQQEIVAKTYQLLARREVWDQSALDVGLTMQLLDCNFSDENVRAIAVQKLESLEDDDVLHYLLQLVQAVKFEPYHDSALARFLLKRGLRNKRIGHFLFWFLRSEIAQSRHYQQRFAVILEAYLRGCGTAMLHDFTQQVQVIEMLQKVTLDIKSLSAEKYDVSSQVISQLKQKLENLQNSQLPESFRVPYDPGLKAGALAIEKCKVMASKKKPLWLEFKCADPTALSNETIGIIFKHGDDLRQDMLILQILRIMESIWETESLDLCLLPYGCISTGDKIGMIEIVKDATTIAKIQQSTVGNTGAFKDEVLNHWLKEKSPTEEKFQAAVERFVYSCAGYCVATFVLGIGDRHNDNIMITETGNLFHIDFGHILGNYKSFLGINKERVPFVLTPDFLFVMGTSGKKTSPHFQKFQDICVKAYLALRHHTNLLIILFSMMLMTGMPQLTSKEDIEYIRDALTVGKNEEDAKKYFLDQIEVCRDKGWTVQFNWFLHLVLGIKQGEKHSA

IC50 [1] [nM] | IC50 [2] [nM] | half-life at 1 µM [3] [h] | SMILES
> 9600 | 170 | 1.2 | C[C@H](NC(=O)c1c(N)nn2cccnc12)c1cc2cccc(C#Cc3ccccn3)c2c(=O)n1-c1ccccc1
> 10000 | 360 | 0.45 | C[C@H](NC(=O)c1c(N)nn2cccnc12)c1cc2cccc(C#Cc3nccs3)c2c(=O)n1-c1ccccc1
> 9000 | 100 | 4.18 | C[C@H](NC(=O)c1c(N)nn2cccnc12)c1cc2cccc(C#Cc3ccn(C)n3)c2c(=O)n1-c1ccccc1
> 9000 | 1000 |  | COc1cccc2cc([C@H](C)NC(=O)c3c(N)nn4cccnc34)n(-c3ccccc3)c(=O)c12
> 8000 | 110 | 0.717 | C[C@H](NC(=O)c1c(N)nn2cccnc12)c1cc2cccc(C#Cc3cncs3)c2c(=O)n1-c1ccccc1
4800 | 75 | 4.5 | C[C@H](NC(=O)c1c(N)nn2cccnc12)c1cc2cccc(C#Cc3cscn3)c2c(=O)n1-c1ccccc1
2600 | 110 |  | Cc1cccc2cc([C@H](C)NC(=O)c3c(N)nn4cccnc34)n(-c3ccccc3)c(=O)c12
600 | 150 |  | CC[C@H](NC(=O)c1c(N)nn2cccnc12)c1cc2cccc(Cl)c2c(=O)n1-c1ccccc1

Continued, molecule first:

SMILES | IC50 [1] [nM] | IC50 [2] [nM] | half-life at 1 µM [3] [h]
Nc1nn2cccnc2c1C(=O)NCc1cc2cccc(Cl)c2c(=O)n1-c1ccccc1 | > 10000 | > 7000 | 
C[C@H](NC(=O)c1cnn2cccnc12)c1cc2cccc(Cl)c2c(=O)n1-c1ccccc1 | 800 | 400 | 
C[C@H](NC(=O)c1c(N)ncc2cccnc12)c1cc2cccc(Cl)c2c(=O)n1-c1ccccc1 | 320 | 60 | 
C[C@H](NC(=O)c1c(N)nn2ccccc12)c1cc2cccc(Cl)c2c(=O)n1-c1ccccc1 | 2600 |  | 
C[C@H](NC(=O)c1c(N)nn2cccnc12)c1cc2cccc(C#Cc3cccnc3)c2c(=O)n1-c1ccccc1 | > 6000 | 110 | 1.7
CC#Cc1cccc2cc([C@H](C)NC(=O)c3c(N)nn4cccnc34)n(-c3ccccc3)c(=O)c12 | > 1000 | 25 | 
C[C@H](NC(=O)c1c(N)nn2cccnc12)c1cc2cccc(C#N)c2c(=O)n1-c1ccccc1 | 3100 | 240 | 
C/C=C/c1cccc2cc([C@H](C)NC(=O)c3c(N)nn4cccnc34)n(-c3ccccc3)c(=O)c12 | > 10000 | 330 | 
CNc1cccc2cc([C@H](C)NC(=O)c3c(N)nn4cccnc34)n(-c3ccccc3)c(=O)c12 | > 10000 | 1100 | 
C[C@H](NC(=O)c1c(N)nn2cccnc12)c1cc2cccc(C#Cc3ccncc3)c2c(=O)n1-c1ccccc1 | > 9000 | 350 | 0.85
C[C@H](NC(=O)c1c(N)nn2cccnc12)c1cc2cccc(Cl)c2c(=O)n1-c1ccccc1 | 400 |  | 
C[C@H](NC(=O)c1c(N)nn2cccnc12)c1cc2cccc(C#Cc3ccccc3)c2c(=O)n1-c1ccccc1 | 140 | 280 | 
C#Cc1cccc2cc([C@H](C)NC(=O)c3c(N)nn4cccnc34)n(-c3ccccc3)c(=O)c12 | 700 | 14 | 
C[C@H](NC(=O)c1c(N)nn2cccnc12)c1cc2cccc(F)c2c(=O)n1-c1ccccc1 | 530 | 50 | 
C[C@H](NC(=O)c1cncc2cccnc12)c1cc2cccc(Cl)c2c(=O)n1-c1ccccc1 | 900 | 1000 | 
C[C@H](NC(=O)c1c(N)nn2cccnc12)c1cc2cccc(N(C)C)c2c(=O)n1-c1ccccc1 | > 10000 | 1100 | 
C[C@H](NC(=O)c1c(N)ncc2ccccc12)c1cc2cccc(Cl)c2c(=O)n1-c1ccccc1 | > 10000 | > 10000 | 

— ChEMBL document CHEMBL3853350 (ACS Med Chem Lett, 2016)
